Test results as given in the NIST ThermoML archive (doi:10.1016/j.fluid.2014.02.018).
Numbers after ± are expanded uncertainties.

Details: 313.15 K; Liquid; Closed cell (Static) method

Structure (SMILES) | vapor or sublimation pressure [kPa]
CC(C)CC(C)(C)C [2,2,4-trimethylpentane] | 12.95 ± 0.031
CCC(C)O (stereo not drawn) [butan-2-ol] | 6.045 ± 0.02
C=CCCCC [hex-1-ene] | 44.98 ± 0.2
